Here are results for nine compounds from patent EP0495091B1 (Metabasis Therapeutics Inc., priority 1990, dated 1992).

One data set deals with ischemic rat hearts. The experiment in a line: Rat heart ischemia model, tissue adenosine levels. It is filed as in vivo, rats. As to conditions: intraperitoneal injection, hearts excised after 60 minutes, incubated 60 minutes at 37°C, HPLC. On the procedure: Male rats were injected intraperitonealy with either the AICA riboside analog, AICA riboside or saline, as a control. After 60 minutes, the hearts were excised and incubated at 37°C for a further 60 minutes. Tissue extracts were prepared and analyzed for adenosine by high performance liquid chromatography (HPLC). […]

For data set [1], the system named is longitudinal muscle from the guinea pig ileum. The data set is described as follows: Inhibition of stimulated contraction in isolated ileum. The note with it: concentration which inhibited electrically stimulated contraction by 50%, read-out: IC50.
Protocol: Parallel platinum electrodes were used to deliver electrical current at 1 minute intervals at a voltage adequate to induce contraction of 90% of maximal.
Data set [2] has as its system coronary endothelial cells. The experiment in a line: Inhibition of adenosine utilization in cell culture. As to conditions: 1 µM [3H] adenosine, 15 minutes. In kind it is cell-based. On the procedure:
Inhibition of adenosine utilization was determined by measuring the concentration of extracellular adenosine by scintillation counting following separation by thin layer chromatography (TLC).

The subject of the next data set is Anesthetized male dogs. In kind it is in vivo. The note with it: n = 6. The procedure: Anesthetized male dogs were instrumented to measure regional myocardial wall thickening during right atrial pacing in the presence of a stenosis of the left anterior descending artery (Young & Mullane Am. J. Physiol. in press (1991)). In Table XIA, the effects on wall thickening and arterial pressure of six repeated episodes of pacing in animals treated with a continuous IV infusion of 50 µg/kg/min of the test compound administered post-pace #1 are compared with saline-treated control animals. […]

Data set [3] can be described thus: Oral bioavailability and half-life in fasted adult beagles. The note with it: dog, in vivo. The procedure:
Heparinized blood and urine were collected at selected intervals over 24 hours. Each sample was chilled, centrifuged at 4°C and frozen prior to HPLC analysis.

In another data set the test system is Isolated rat hearts. The data set is described as follows: Improved functional recovery in isolated hearts (Langendorff, post-ischemic LVDP). As to conditions: 30 min ischemia, 30 min reperfusion, number in brackets = hearts. The procedure:
Isolated rat hearts were cannulated via the ascending aorta and attached to a perfusion apparatus according to the method of Langendorff. The hearts were perfused at a constant pressure of 100 cm of H2O with a modified Krebs-Henseleit buffer (pH 7.4) at 37°C. As a measure of heart function, left ventricular developed pressure (LVDP) was continuously monitored. Following equilibration of the hearts for a period of 30 min., the hearts were subjected to reduced flow i.e. ischemia, by reducing the pressure to 10 cm of H2O for 30 min. Flow was then restored by returning the pressure to its original level (100 cm of H2O) for a further 30 min.

For data set [4], the target named is T1, NBTI-specific adenosine transport site (Homo sapiens, UniProt Q99808).
T1 construct: incubated for 30 minutes with 0.5 mg neuronal membrane protein together with 0.5 nM [^3H]-NBTI; from tissue
T1 sequence (Q99808 1-456): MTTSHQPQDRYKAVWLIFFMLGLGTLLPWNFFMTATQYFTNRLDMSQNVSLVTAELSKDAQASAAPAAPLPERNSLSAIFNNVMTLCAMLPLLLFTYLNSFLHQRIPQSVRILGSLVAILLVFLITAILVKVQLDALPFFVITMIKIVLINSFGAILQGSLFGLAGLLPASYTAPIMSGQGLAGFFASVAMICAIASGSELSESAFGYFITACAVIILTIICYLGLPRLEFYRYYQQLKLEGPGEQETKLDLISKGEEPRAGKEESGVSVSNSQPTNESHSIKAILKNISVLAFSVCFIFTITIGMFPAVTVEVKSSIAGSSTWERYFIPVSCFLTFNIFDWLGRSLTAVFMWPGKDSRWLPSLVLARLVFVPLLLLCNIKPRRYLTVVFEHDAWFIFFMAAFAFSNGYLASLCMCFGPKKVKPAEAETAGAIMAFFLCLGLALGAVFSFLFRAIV
The data set is described as follows: [3H]-NBTI binding assay. As to conditions: 50% displacement of bound [3H]-NBTI (0.5 nM); neuronal membrane protein, 30 minutes, pH 7.4, room temperature; read-out: ED50 (the source's name). On the procedure:
Increasing concentrations of the test compounds were incubated for 30 minutes with 0.5 mg neuronal membrane protein together with 0.5 nM [^3H]-NBTI in a Tris buffer (pH 7.4) at room temperature. The assays were quenched and membranes collected by rapid filtration. Filters were then solubilized and radioactivity determined by scintillation counting.

Data set [5] relates to platelet aggregation in human whole blood. The experiment in a line: Inhibition of platelet aggregation in human whole blood. In kind it is cell-based. As to conditions: 10 minutes at 37°C, 10 µM adenosine added 5 minutes before, ADP (6-25 µM) induced, impedance technique. The procedure: Whole blood was drawn from healthy donors and collected in 0.1 vol. of sodium citrate to prevent coagulation. Platelet aggregation was measured by the impedance technique using a Whole Blood Aggregometer.

Data set [6] concerns coronary endothelial cells. The data set is described as follows: Adenosine release from isolated cells under net ATP breakdown. In kind it is cell-based. The note with it: 50 µM test compound. The procedure: In this experimental model the cells were treated with 50 µM of the test compound and incubated for 16 hours at 37°C. Cells were then washed with phosphate-buffered saline and resuspended in standard culture medium containing no glucose (to inhibit glycolysis), 50 µM antimycin A (to inhibit oxidative phosphorylation) and 20 µM deoxycoformycin (to inhibit adenosine utilization by adenosine deaminase). This treatment was designed to simulate ischemic condition by inducing net ATP breakdown. Media was then processed for HPLC.

In a further data set the test system is male Mongolian gerbils. The experiment in a line: Experimental stroke model (gerbil brain ischemia). It is filed as in vivo. As to conditions: pretreatment with 500 mg/kg; bilateral carotid occlusion for 5 minutes; histology after seven days. The procedure: In this test, male Mongolian gerbils were anesthetized with 2-3% halothane in N20:02 and the common carotid arteries exposed. Ischemia was then induced by bilateral occlusion of both common carotid arteries for 5 minutes. Seven days following the ischemic insult, brains were removed and processed for histology.

Data set [7] concerns the target T2, calf intestinal musosa adenosine deaminase (Bos taurus, UniProt P56658).
T2 construct: calf intestinal musosa adenosine deaminase; from tissue; host or cells: calf intestinal mucosa
T2 sequence (P56658 1-363): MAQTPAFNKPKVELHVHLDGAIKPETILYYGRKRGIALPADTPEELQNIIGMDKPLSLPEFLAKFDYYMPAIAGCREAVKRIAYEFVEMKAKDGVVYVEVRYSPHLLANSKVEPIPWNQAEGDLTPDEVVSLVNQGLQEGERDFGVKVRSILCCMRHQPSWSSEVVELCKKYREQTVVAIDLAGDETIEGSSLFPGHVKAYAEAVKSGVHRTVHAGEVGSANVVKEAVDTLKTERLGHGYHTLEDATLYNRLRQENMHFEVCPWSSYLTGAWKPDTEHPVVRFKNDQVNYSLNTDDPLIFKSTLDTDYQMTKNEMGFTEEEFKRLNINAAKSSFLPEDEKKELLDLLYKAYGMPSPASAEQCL
The data set is described as follows: Adenosine deaminase activity inhibition. It is filed as biochemical. As to conditions: 80 µM adenosine, pH 7.0, 10 minutes at 37°C. On the procedure: Different concentrations of the test compounds were incubated in the assay mixture for 10 minutes at 37°C. The reaction was monitored continuously for oxidation of NADH from the change in absorbance at 340 nm.

For data set [8] the following is noted: cited from earlier work.

Several values for one entry are separate records, joined by “and”; a condition that tells them apart may be missing. Identical values can stand only once. Like-named read-outs stand apart in the source and are kept apart here.

For the compound `Nc1c(C(=O)NN2CCCCC2)ncn1[C@@H]1O[C@H](CO)[C@@H](O)[C@H]1O` [Compound No. 36, 5-amino-4-(1-piperidinocarbamoyl)-1-β-D-ribofuranosylimidazole], the “Tissue Adenosine Levels (% Increase vs. Saline)” value in the data set on ischemic rat hearts is reported as 34%.

For orientation: IC50 means the concentration that inhibits the measured activity by half. Take `Cl.NC[C@H]1O[C@@H](n2cnc(C(=O)NCc3ccc(Cl)cc3)c2N)[C@H](O)[C@@H]1O` [Compound No. 53, 5-Amino-1-(5-amino-5-deoxy-β-D-ribofuranosyl)imidazole-4-N-[(4-chlorophenyl)methyl]carboxamide Hydrochloride]: the IC50 in data set [1] came out at 70 µM; in [5], 0.15 mM. Further, the “Inhibition of Adenosine Utilization (%)” value is given as 34 ± 4% in [2] (5 µM test compound) and 58 ± 2% in data set [2] (50 µM test compound). For the same compound, the “% of NON-ISCHEMIC WALL THICKENING” value in the data set on Anesthetized male dogs (Pace # 1 (infusion started post-pace #1)) is 49.5 ± 6.5%; in the data set with Anesthetized male dogs (Pace # 2, continuous IV infusion of 50 µg/kg/min) it was 46.7 ± 7.0%; in the data set with Anesthetized male dogs (Pace # 3, continuous IV infusion of 50 µg/kg/min), 54.2 ± 9.4 %; in the data set on Anesthetized male dogs (Pace # 4, continuous IV infusion of 50 µg/kg/min), 48.1 ± 7.6 %; in the data set on Anesthetized male dogs (Pace # 5, continuous IV infusion of 50 µg/kg/min), 47.5 ± 8.2 %; with Anesthetized male dogs (Pace # 6, continuous IV infusion of 50 µg/kg/min) it was 42.1 ± 7.0 %. In addition, in data set [3], the “Half Life” value amounted to 5.61 h. In addition, in data set [3] (po), the “Absolute Oral Bioavailability %” value is reported as 53 (1-468) 32%. The “Function Recovery % Baseline LVDP (% of hearts)” value in the data set with Isolated rat hearts (5 µM in perfusion buffer) is on record as 85.6±1.8 (10) %. Also, the EC50 in data set [4] was around 100 µM.

The term inhibition denotes the change of the read-out against control, counted positive when it falls. What is called bioavailability is dose-corrected exposure relative to a reference, in per cent. As a reminder, the half-life is how long it takes for the measured level to halve. Take `NC(=O)c1ncn([C@@H]2O[C@H](CO)[C@@H](O)[C@H]2O)c1N` [Compound No. 1, 5-amino-1-beta-D-ribofuranosylimidazole-4-carboxamide, reference compound]: the “Tissue Adenosine Levels (% Increase vs. Saline)” value in the data set on ischemic rat hearts amounted to 30%. In addition, the “Extracellular Adenosine Levels” value in data set [6] (16 hours at 37°C, then no glucose, antimycin A, deoxycoformycin) is given as 1.64 ± 0.12 µM. The “Extracellular Adenosine Increase (%)” value in [6] (16 hours, increase versus control) turned out to be 15.5%. Besides, the IC50 is above 1000 µM in data set [1] (Cavia porcellus) and 2.7 mM in data set [5] (Homo sapiens, Platelet). Besides, the inhibition at 5 µM in [2] (Endothelial cell, 5 µM test compound, read-out: Inhibition of Adenosine Utilization (%)) worked out at 5 ± 2%. Further, the inhibition at 50 µM in data set [2] (Endothelial cell, 50 µM test compound, read-out: Inhibition of Adenosine Utilization (%)) amounted to 10 ± 1%. Further, in data set [3] (beagle, oral, fasted adult beagles, 10 mg/kg IV bolus and 20 mg/kg solution via stomach tube, read-out: Absolute Oral Bioavailability %), the bioavailability is 8%. The same compound gave a half-life in [3] (beagle, fasted adult beagles) of 21 min. Moreover, the “Function Recovery % Baseline LVDP (% of hearts)” value with Isolated rat hearts (5 µM in perfusion buffer) is 64.2±1.5 (6) %; in the data set on Isolated rat hearts (20 µM in perfusion buffer) it was 79.4±1.3 (34) %. The EC50 in [4] was above 1000 µM.

In the case of `Nc1c(C(=O)NC2CCCC2)ncn1[C@@H]1O[C@H](CO)[C@@H](O)[C@H]1O` [Compound No. 10, 5-Amino-1-beta-D-ribofuranosylimidazole-4-N-(cyclopentyl)carboxamide], in the data set on ischemic rat hearts (listed as 10 (1-186)), the “Tissue Adenosine Levels (% Increase vs. Saline)” value is 79% and 68%. Moreover, in the data set with male Mongolian gerbils, the “effect in a gerbil model of brain ischemia (hippocampal pyramidal cell survival)” value is recorded as “protective effects”. Besides, the “Function Recovery % Baseline LVDP (% of hearts)” value is 83.7±0.7 (6) % in the data set on Isolated rat hearts (5 µM in perfusion buffer) and 84.5±3.5 (2) % in the data set with Isolated rat hearts (20 µM in perfusion buffer). Besides, in [4], the EC50 was determined as 350 µM.

Consider `Nc1c(C(=O)NCc2ccccc2)ncn1[C@@H]1O[C@H](CO)[C@@H](O)[C@H]1O` [Compound No. 11, 5-Amino-1-beta-D-ribofuranosylimidazole-4-N-(benzyl)carboxamide], for which, in the data set on ischemic rat hearts (listed as 11 (1-226)), the “Tissue Adenosine Levels (% Increase vs. Saline)” value was 53% and 45%. For the same compound, the “effect in a gerbil model of brain ischemia (hippocampal pyramidal cell survival)” value in the data set with male Mongolian gerbils was “protective effects”. Besides, the IC50 in [1] was 200 µM. The results for the “Function Recovery % Baseline LVDP (% of hearts)” value in the data set with Isolated rat hearts (5 µM in perfusion buffer) and in the data set with Isolated rat hearts (20 µM in perfusion buffer) were 77.2±5.8 (7) % and 85.7±6.2 (3) %, respectively.

In turn, `CO[C@@H]1[C@H](O)[C@@H](CO)O[C@H]1n1cnc(C(N)=O)c1N` [Compound No. 20, 5-Amino-1-(2-O-methyl-β-D-ribofuranosyl)-imidazole-4-carboxamide] had an IC50 in data set [7] of 1400 µM.

With `Nc1ncnc2c1ncn2[C@@H]1O[C@H](CO)[C@@H](O)[C@H]1O` [adenosine], in data set [8], the “half life of adenosine in blood” value was below 10 s.

As for `CCO[C@@H]1[C@H](O)[C@@H](CO)O[C@H]1n1cnc(C(N)=O)c1N` [Compound No. 34, 5-amino-1-(2-O-ethyl-β-D-ribofuranosyl)-4-imidazole carboxamide], in data set [7], it took 510 µM to reach half-maximal inhibition (IC50).

`Nc1c(C(=O)NC2CC2)ncn1[C@@H]1O[C@H](CO)[C@@H](O)[C@H]1O` [Compound No. 12, 5-Amino-1-beta-D-ribofuranosylimidazole-4-N-(cyclopropyl)carboxamide]: the “Tissue Adenosine Levels (% Increase vs. Saline)” value in the data set on ischemic rat hearts was 29%. Moreover, in data set [1], the IC50 was found to be 400 µM.
